{"source": "patent US10899753B2", "about": "“Inhibiting agents for Bruton's tyrosine kinase” (BIOGEN MA INC., priority 2018, dated 2021)", "key": {"[1]": {"target": "T1, BTK (Homo sapiens (Human), UniProt Q06187)", "T1 sequence (Q06187 whole entry)": "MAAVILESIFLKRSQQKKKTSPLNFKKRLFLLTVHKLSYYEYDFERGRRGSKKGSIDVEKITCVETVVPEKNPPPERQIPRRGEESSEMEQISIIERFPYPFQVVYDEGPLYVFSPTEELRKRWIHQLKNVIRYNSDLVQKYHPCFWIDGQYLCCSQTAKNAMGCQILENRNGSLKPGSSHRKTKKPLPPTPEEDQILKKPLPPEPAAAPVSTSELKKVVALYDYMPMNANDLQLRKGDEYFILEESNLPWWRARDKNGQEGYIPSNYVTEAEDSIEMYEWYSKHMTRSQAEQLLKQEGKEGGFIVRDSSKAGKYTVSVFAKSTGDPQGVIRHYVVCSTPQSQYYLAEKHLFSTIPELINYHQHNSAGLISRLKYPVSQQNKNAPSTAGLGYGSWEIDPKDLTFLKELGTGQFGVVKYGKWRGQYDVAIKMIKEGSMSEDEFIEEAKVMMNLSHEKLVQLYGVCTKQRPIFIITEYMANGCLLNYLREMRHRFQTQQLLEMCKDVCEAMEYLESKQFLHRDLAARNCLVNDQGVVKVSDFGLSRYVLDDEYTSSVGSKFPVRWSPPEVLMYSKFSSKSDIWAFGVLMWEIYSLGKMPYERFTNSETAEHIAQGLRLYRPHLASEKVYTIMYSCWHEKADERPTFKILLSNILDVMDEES", "test": "In Vitro BTK Kinase Assay: BTK-POLYGAT-LS ASSAY", "assay_type": "biochemical", "conditions": "fluorescein-labeled polyGAT peptide 100 nM, BTK enzyme 0.25 nM, 30 minutes, TRF", "in_short": "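ATP […] and polyGAT peptide (100 nM), final concentrations, in Tris-HCl pH 7.5 kinase buffer with MgCl2, DTT, Triton X-100 and casein. Reaction run 30 min, stopped with EDTA, then 45 min at room temperature.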"}, "[2]": {"target": "T1, BTK", "test": "In Vitro PD Assay in Human Whole Blood (pBTK assay)", "assay_type": "cell-based", "conditions": "human heparinized whole blood, 37° C. for 30 min, total BTK capture and phosphotyrosine detection (ECL)", "in_short": "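Heparinized human venous whole blood spiked with serially diluted compound (0.1% DMSO final) and incubated 30 min at 37° C. Lysed with protease/phosphatase inhibitors (high control +PPi, low control −PPi lacking phosphatase inhibitors); total BTK captured and phosphotyrosine detected.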"}}, "data": [{"smiles": "Cn1ccc(Nc2ncnc(-c3ccc4c(c3)CN(C3COC3)CC[C@H]4NC(=O)c3coc(C(C)(C)C)n3)n2)n1", "note": "[Compound 94, (R)-2-(tert-butyl)-N-(8-(4-((1-methyl-1H-pyrazol-3-yl)amino)-1,3,5-triazin-2-yl)-2-(oxetan-3-yl)-2,3,4,5-tetrahydro-1H-benzo[c]azepin-5-yl)oxazole-4-carboxamide]", "values": [{"measurement": "IC50", "setting": "[1]", "value": "1 to 10", "unit": "nM"}, {"measurement": "IC50", "setting": "[2]", "value": "100 to 500", "unit": "nM"}]}, {"smiles": "Cn1ccc(Nc2ncnc(-c3ccc4c(c3)CN(CC(F)(F)F)CC[C@H]4NC(=O)c3coc(C(C)(C)C)n3)n2)n1", "note": "[Compound 95, (R)-2-(tert-butyl)-N-(8-(4-((1-methyl-1H-pyrazol-3-yl)amino)-1,3,5-triazin-2-yl)-2-(2,2,2-trifluoroethyl)-2,3,4,5-tetrahydro-1H-benzo[c]azepin-5-yl)oxazole-4-carboxamide]", "values": [{"measurement": "IC50", "setting": "[1]", "value": "< 1", "unit": "nM"}, {"measurement": "IC50", "setting": "[2]", "value": "500 to 10000", "unit": "nM"}]}, {"smiles": "Cn1ccc(Nc2ncnc(-c3ccc4c(c3)CN(CC(F)(F)F)CC[C@H]4NC(=O)c3nc(C(C)(C)C)co3)n2)n1", "note": "[Compound 96, (R)-4-(tert-butyl)-N-(8-(4-((1-methyl-1H-pyrazol-3-yl)amino)-1,3,5-triazin-2-yl)-2-(2,2,2-trifluoroethyl)-2,3,4,5-tetrahydro-1H-benzo[c]azepin-5-yl)oxazole-2-carboxamide]", "values": [{"measurement": "IC50", "setting": "[1]", "value": "1 to 10", "unit": "nM"}, {"measurement": "IC50", "setting": "[2]", "value": "500 to 10000", "unit": "nM"}]}, {"smiles": "Cn1ccc(Nc2ncnc(-c3ccc4c(c3)CN(C3COC3)CC[C@H]4NC(=O)c3nc(C(C)(C)C)no3)n2)n1", "note": "[Compound 98, (R)-3-(tert-butyl)-N-(8-(4-((1-methyl-1H-pyrazol-3-yl)amino)-1,3,5-triazin-2-yl)-2-(oxetan-3-yl)-2,3,4,5-tetrahydro-1H-benzo[c]azepin-5-yl)-1,2,4-oxadiazole-5-carboxamide]", "values": [{"measurement": "IC50", "setting": "[1]", "value": "< 1", "unit": "nM"}, {"measurement": "IC50", "setting": "[2]", "value": "100 to 500", "unit": "nM"}]}, {"smiles": "Cc1cc(-c2ncnc(Nc3cnn(C)c3)n2)ccc1CNC(=O)c1cnc(C(C)(C)C)o1", "note": "[Compound 99, 2-(tert-butyl)-N-(2-methyl-4-(4-((1-methyl-1H-pyrazol-4-yl)amino)-1,3,5-triazin-2-yl)benzyl)oxazole-5-carboxamide]", "values": [{"measurement": "IC50", "setting": "[1]", "value": "< 1", "unit": "nM"}, {"measurement": "IC50", "setting": "[2]", "value": "500 to 10000", "unit": "nM"}]}, {"smiles": "Cc1c(CNC(=O)c2coc(C(C)(C)C)n2)ccc(-c2ncnc(Nc3ccn(C)n3)n2)c1F", "note": "[Compound 100, 2-(tert-butyl)-N-(3-fluoro-2-methyl-4-(4-((1-methyl-1H-pyrazol-3-yl)amino)-1,3,5-triazin-2-yl)benzyl)oxazole-4-carboxamide]", "values": [{"measurement": "IC50", "setting": "[1]", "value": "< 1", "unit": "nM"}, {"measurement": "IC50", "setting": "[2]", "value": "500 to 10000", "unit": "nM"}]}, {"smiles": "C[C@@H](NC(=O)c1noc(C(C)(C)C)n1)c1ccc(-c2ncnc(Nc3ccn(C)n3)n2)c(F)c1Cl", "note": "[Compound 101, (R)-5-(tert-butyl)-N-(1-(2-chloro-3-fluoro-4-(4-((1-methyl-1H-pyrazol-3-yl)amino)-1,3,5-triazin-2-yl)phenyl)ethyl)-1,2,4-oxadiazole-3-carboxamide]", "values": [{"measurement": "IC50", "setting": "[1]", "value": "< 1", "unit": "nM"}, {"measurement": "IC50", "setting": "[2]", "value": "500 to 10000", "unit": "nM"}]}, {"smiles": "C[C@@H](NC(=O)c1nc(C(C)(C)C)no1)c1ccc(-c2ncnc(Nc3ccn(C)n3)n2)c(F)c1Cl", "note": "[Compound 102, (R)-3-(tert-butyl)-N-(1-(2-chloro-3-fluoro-4-(4-((1-methyl-1H-pyrazol-3-yl)amino)-1,3,5-triazin-2-yl)phenyl)ethyl)-1,2,4-oxadiazole-5-carboxamide]", "values": [{"measurement": "IC50", "setting": "[1]", "value": "< 1", "unit": "nM"}, {"measurement": "IC50", "setting": "[2]", "value": "500 to 10000", "unit": "nM"}]}, {"smiles": "Cn1cc(Nc2ncnc(-c3ccc(CNC(=O)c4coc(C(C)(C)C)n4)c(Cl)c3F)n2)cn1", "note": "[Compound 103, 2-(tert-butyl)-N-(2-chloro-3-fluoro-4-(4-((1-methyl-1H-pyrazol-4-yl)amino)-1,3,5-triazin-2-yl)benzyl)oxazole-4-carboxamide]", "values": [{"measurement": "IC50", "setting": "[1]", "value": "< 1", "unit": "nM"}, {"measurement": "IC50", "setting": "[2]", "value": "100 to 500", "unit": "nM"}]}, {"smiles": "Cn1ccc(Nc2ncnc(-c3ccc(CNC(=O)c4noc(C5(C)CC5)n4)c(Cl)c3F)n2)n1", "note": "[Compound 104, N-(2-chloro-3-fluoro-4-(4-((1-methyl-1H-pyrazol-3-yl)amino)-1,3,5-triazin-2-yl)benzyl)-5-(1-methylcyclopropyl)-1,2,4-oxadiazole-3-carboxamide]", "values": [{"measurement": "IC50", "setting": "[1]", "value": "< 1", "unit": "nM"}, {"measurement": "IC50", "setting": "[2]", "value": "500 to 10000", "unit": "nM"}]}, {"smiles": "Cc1c(CNC(=O)c2cn(C(C)(C)C)nn2)ccc(-c2ncnc(Nc3cnn(C)c3)n2)c1F", "note": "[Compound 105, 1-(tert-butyl)-N-(3-fluoro-2-methyl-4-(4-((1-methyl-1H-pyrazol-4-yl)amino)-1,3,5-triazin-2-yl)benzyl)-1H-1,2,3-triazole-4-carboxamide]", "values": [{"measurement": "IC50", "setting": "[1]", "value": "< 1", "unit": "nM"}, {"measurement": "IC50", "setting": "[2]", "value": "100 to 500", "unit": "nM"}]}, {"smiles": "Cc1c(CNC(=O)c2ccn(C(C)(C)C)n2)ccc(-c2ncnc(Nc3cnn(C)c3)n2)c1F", "note": "[Compound 106, 1-(tert-butyl)-N-(3-fluoro-2-methyl-4-(4-((1-methyl-1H-pyrazol-4-yl)amino)-1,3,5-triazin-2-yl)benzyl)-1H-pyrazole-3-carboxamide]", "values": [{"measurement": "IC50", "setting": "[1]", "value": "< 1", "unit": "nM"}, {"measurement": "IC50", "setting": "[2]", "value": "500 to 10000", "unit": "nM"}]}, {"smiles": "Cc1cc(-c2ncnc(Nc3cnn(C)c3)n2)ccc1CNC(=O)c1coc(C(C)(C)C)n1", "note": "[Compound 107, 2-(tert-butyl)-N-(2-methyl-4-(4-((1-methyl-1H-pyrazol-4-yl)amino)-1,3,5-triazin-2-yl)benzyl)oxazole-4-carboxamide]", "values": [{"measurement": "IC50", "setting": "[1]", "value": "< 1", "unit": "nM"}, {"measurement": "IC50", "setting": "[2]", "value": "500 to 10000", "unit": "nM"}]}, {"smiles": "Cc1cc(-c2ncnc(Nc3cnn(C)c3)n2)ccc1CNC(=O)c1cc(C(C)(C)C)no1", "note": "[Compound 108, 3-(tert-butyl)-N-(2-methyl-4-(4-((1-methyl-1H-pyrazol-4-yl)amino)-1,3,5-triazin-2-yl)benzyl)isoxazole-5-carboxamide]", "values": [{"measurement": "IC50", "setting": "[1]", "value": "< 1", "unit": "nM"}, {"measurement": "IC50", "setting": "[2]", "value": "100 to 500", "unit": "nM"}]}, {"smiles": "Cc1cc(-c2ncnc(Nc3cnn(C)c3)n2)ccc1CNC(=O)c1cn(C(C)(C)C)nn1", "note": "[Compound 109, 1-(tert-butyl)-N-(2-methyl-4-(4-((1-methyl-1H-pyrazol-4-yl)amino)-1,3,5-triazin-2-yl)benzyl)-1H-1,2,3-triazole-4-carboxamide]", "values": [{"measurement": "IC50", "setting": "[1]", "value": "1 to 10", "unit": "nM"}, {"measurement": "IC50", "setting": "[2]", "value": "100 to 500", "unit": "nM"}]}, {"smiles": "Cn1ccc(Nc2ncnc(-c3ccc4c(c3F)CCCC[C@H]4NC(=O)c3noc(C(C)(C)C)n3)n2)n1", "note": "[Compound 111, (R)-5-(tert-butyl)-N-(1-fluoro-2-(4-((1-methyl-1H-pyrazol-3-yl)amino)-1,3,5-triazin-2-yl)-6,7,8,9-tetrahydro-5H-benzo[7]annulen-5-yl)-1,2,4-oxadiazole-3-carboxamide]", "values": [{"measurement": "IC50", "setting": "[1]", "value": "< 1", "unit": "nM"}, {"measurement": "IC50", "setting": "[2]", "value": "100 to 500", "unit": "nM"}]}, {"smiles": "Cn1ccc(Nc2ncnc(-c3ccc4c(c3F)CCCC[C@H]4NC(=O)c3coc(C(C)(C)C)n3)n2)n1", "note": "[Compound 112, (R)-2-(tert-butyl)-N-(1-fluoro-2-(4-((1-methyl-1H-pyrazol-3-yl)amino)-1,3,5-triazin-2-yl)-6,7,8,9-tetrahydro-5H-benzo[7]annulen-5-yl)oxazole-4-carboxamide]", "values": [{"measurement": "IC50", "setting": "[1]", "value": "< 1", "unit": "nM"}, {"measurement": "IC50", "setting": "[2]", "value": "500 to 10000", "unit": "nM"}]}, {"smiles": "Cc1c(CNC(=O)c2noc(C3(C)CC3)n2)ccc(-c2ncnc(Nc3ccn(C)n3)n2)c1F", "note": "[Compound 113, N-(3-fluoro-2-methyl-4-(4-((1-methyl-1H-pyrazol-3-yl)amino)-1,3,5-triazin-2-yl)benzyl)-5-(1-methylcyclopropyl)-1,2,4-oxadiazole-3-carboxamide]", "values": [{"measurement": "IC50", "setting": "[1]", "value": "< 1", "unit": "nM"}, {"measurement": "IC50", "setting": "[2]", "value": "100 to 500", "unit": "nM"}]}, {"smiles": "Cc1cc(-c2ncnc(Nc3cnn(C)c3)n2)ccc1CNC(=O)c1nc(C(C)(C)C)co1", "note": "[Compound 114, 4-(tert-butyl)-N-(2-methyl-4-(4-((1-methyl-1H-pyrazol-4-yl)amino)-1,3,5-triazin-2-yl)benzyl)oxazole-2-carboxamide]", "values": [{"measurement": "IC50", "setting": "[1]", "value": "< 1", "unit": "nM"}, {"measurement": "IC50", "setting": "[2]", "value": "500 to 10000", "unit": "nM"}]}]}
